Data taken from patent publication US5068325A, “4,5,7,8-tetrahydro-6H-thiazolo[5,4-d]azepines, their preparation and their use as pharmaceutical compositions” (priority 1988, dated 1991).

Experiments:
alpha-2 receptors = molecular target: T1, alpha-2 receptors (Rattus norvegicus, UniProt P22909); assay: affinity for alpha-2 receptors by displacement experiments with [3H]-clonidine (rat cortex membranes); assay type: binding; details: read-out: α2-IC50
T1 sequence (P22909 1-465): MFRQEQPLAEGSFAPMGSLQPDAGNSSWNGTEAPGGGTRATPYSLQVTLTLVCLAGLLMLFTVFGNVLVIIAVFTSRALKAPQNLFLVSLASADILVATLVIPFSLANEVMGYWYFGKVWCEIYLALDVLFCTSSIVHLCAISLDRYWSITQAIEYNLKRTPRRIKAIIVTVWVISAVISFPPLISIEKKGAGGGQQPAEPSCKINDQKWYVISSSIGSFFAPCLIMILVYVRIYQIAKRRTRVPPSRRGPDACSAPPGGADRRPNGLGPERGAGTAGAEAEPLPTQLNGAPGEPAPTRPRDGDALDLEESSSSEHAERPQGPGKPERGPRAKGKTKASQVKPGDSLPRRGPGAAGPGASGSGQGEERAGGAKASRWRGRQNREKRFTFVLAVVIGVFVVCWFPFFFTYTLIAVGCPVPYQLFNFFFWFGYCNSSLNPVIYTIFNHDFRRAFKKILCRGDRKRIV
Procedure: Determination of the affinity for alpha-2 receptors by displacement experiments with [^3 H] clonidine (Modified Method of B. Jarrott, W. J. Louis and R. J. Summers, Biochem. Pharmacol. 27, 141 (1979))
A male rat (Chbb:Thom strain weighing about 200 g) was killed by a blow to the back of the neck. The brain was removed and the cortex dissected out, weighed and homogenised in 25 volumes of tris buffer (50 mM tris- HCl, pH 7.50) for 30 seconds in an Ultra-Turrax at maximum speed, followed by 10° Cycles in a Potter- Elvehjem at 1400 rpm. The homogenised material was combined with tris buffer to obtain a homogenate dilution of 1:50 (based on the weight of the cortex).
1 ml aliquots of the membrane preparation were incubated for three hours at ambient temperature with 1 ml of a solution of 1 nM of [^3 H]-clonidine (2.2 TBq/mmol, Messrs. DuPont NEN) and with increasing concentrations of the test substance (10^-11 to 10^-4 M). Incubation was ended by the addition of 5 ml of ice-cold tris buffer and filtration through Whatman GF/B filters. The filters were washed twice, each time with 5 ml of ice cold buffer. The radioactivity of the filters was determined by liquid scintillation measurement in Instagel(R) (Messrs. Canberra Packard). The non-specific binding was determined in the presence of 10^-5 M of oxymetazoline (Sigma Chemical Co.).

dopamine D2-receptors = dopamine D2-receptors (Rattus norvegicus, UniProt P61169); assay: affinity for dopamine D2-receptors by displacement experiments with [3H]-spiperone (rat striatum membranes); assay type: binding; details: for Ki: [3H]-spiperone, high-affinity form of the dopamine receptor; for α2-IC50 / D2-Ki: relative affinity for dopamine-D2 receptors compared with α2-adrenoceptors, the higher, the higher the D2/α2 selectivity
Sequence of dopamine D2-receptors (P61169 whole entry): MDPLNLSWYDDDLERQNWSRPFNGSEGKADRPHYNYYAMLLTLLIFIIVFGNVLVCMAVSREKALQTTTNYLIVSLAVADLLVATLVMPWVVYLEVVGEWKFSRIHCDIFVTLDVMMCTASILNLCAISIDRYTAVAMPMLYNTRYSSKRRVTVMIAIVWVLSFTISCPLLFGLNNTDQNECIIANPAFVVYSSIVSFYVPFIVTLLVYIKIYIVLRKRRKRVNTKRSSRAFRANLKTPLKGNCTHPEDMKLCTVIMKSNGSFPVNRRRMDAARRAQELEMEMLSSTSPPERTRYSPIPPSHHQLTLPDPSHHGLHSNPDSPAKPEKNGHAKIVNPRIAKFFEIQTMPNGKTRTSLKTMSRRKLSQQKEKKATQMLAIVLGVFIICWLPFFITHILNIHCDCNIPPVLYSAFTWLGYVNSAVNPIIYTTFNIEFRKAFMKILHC
Procedure: 1Determining the affinity for dopamine D2-receptors by displacement experiments with [^3 H]-spiperone (Modified Method of W. Billard et al., Life Sci. 35, 1885 (1984) and D. J. de Vries and P. M. Beart, Eur. J. Pharmacol. 109, 417 (1985))
Male rats (of the Chbb:Thom strain weighing about 200 g) were killed by a blow to the back of the neck. The brains were removed and dissected on ice. The striata were dissected out, weighed and homogenised in 25 volumes of tris buffer (50 mM tris-HCl, 1 mM EDTA, 5 mM MgCl2 and 1 mM ascorbic acid) for 30 seconds in an Ultra-Turrax at maximum speed, followed by 10 cycles in a Potter-Elvehjem at 1400 rpm. The pellet obtained after centrifuging at 50,000×g at 4° C. for 15 minutes was again taken up in 25 ml of tris buffer and centrifuged under the above conditions. The supernatant was discarded and the pellet obtained was incubated in 25 ml of tris buffer at 37° C. for 30 minutes and then centrifuged again at 50,000×g at 4° C. for 15 minutes. Finally, the pellet obtained was mixed with tris buffer to obtain a homogenate dilution of 1:500 (based on the weight of the striata).
1 ml aliquots of the membrane preparation were incubated with 1 ml of a solution of 0.25 nM [^3 H]-spiperone ([…], Messrs. DuPont NEN) and at increasing concentrations of the test substance (10^-11 to 10^-4 M) at ambient temperature for one hour. Incubation was ended by the addition of 5 ml of ice cold tris buffer and filtration using Whatman GF/B filters. The filters were washed twice, each time with 5 ml of ice cold buffer. The radioactivity of the filters was determined by liquid scintillation measurement in Instagel^(R) (Messrs. Canberra Packard). Non-specific binding was determined in the presence of 10^-5 M haloperidol (Sigma Chemical Co.).
Displacement curves were obtained from the data using the TOPFIT programming package (G. Heinzel in "Pharmacokinetics During Drug Development: Data Analysis and Evaluation Techniques", G. Bozler and J. M. van Rossum Eds., G. Fischer Verlag, Stuttgart 1982, 207).

MPTP monkeys = assay: post-synaptic dopaminergic activity in MPTP monkeys; assay type: in vivo, rhesus monkey; details: for effect on MPTP-induced symptoms: MPTP-treated rhesus monkeys; for minimal effective dose: Primates, in Macaca mulatta, im, rhesus monkeys, i.m., read-out: minimum dose (MED) required to alleviate the Parkinson's symptoms
Text: 6. Determining the post-synaptic dopaminergic activity in MPTP monkeys (Modified Method of R. S. Burns et al., Proc. Natl. Acad. Sci. 80. 4546 (1983))
The neurotoxin 1-methyl-4-phenyl-1,2,3,6- tetrahydro-pyridine (MPTP) produces in humans and monkeys an irreversible syndrome which in its clinical, pathological, biochemical and pharmacological appearance is very similar to idiopathic Parkinson's disease (Markey et al., Nature 311, 464 (1984)). The reason for this similarity is that MPTP selectively destroys those dopaminergic nerve cells in the substantia nigra of the brain which are also lost by degenerative processes in Parkinson's disease. There is even some discussion that MPTP or an MPTP-like substance might be formed in the body and trigger Parkinson's disease (S. H. Snyder, Nature 311, 514 (1984)). Possibly because of the specific MPTP metabolism, the clinical formation of the MPTP-induced Parkinson syndrome has hitherto been detected only in humans and monkeys. The MPTP model produced in the rhesus monkey is therefore exceptionally suitable for testing the activity of post-synaptically acting dopamine agonists. For this purpose, rhesus monkeys were given MPTP in overall doses of up to about 6 mg/kg of body weight, until the following symptoms appeared: The animals were akinetic and unable to take water and food.
It is clear that with the compounds according to the invention there is no sedative effect or ataxia at a dosage which is several times the MED, which can be put down to the absence of a corresponding activity mediated by the α2- receptors.

In the case of `COc1cccc(C=CCN2CCc3nc(N)sc3CC2)c1OC` [Example 4o, 2-Amino-6-(3-(2,3-dimethoxy-phenyl)allyl)-4,5,7,8-tetrahydro-6H-thiazolo[5,4-d]azepine], the IC50 (alpha-2 receptors) is reported as 550 nM, the Ki (dopamine D2-receptors) is reported as 1.3 nM and the “α2-IC50 / D2-Ki” value (dopamine D2-receptors) is reported as 423.
For `Nc1nc2c(s1)CCN(CC=Cc1ccccc1-c1ccccc1)CC2` [Example 4v, 2-Amino-6-(3-(2-biphenyl)allyl)-4,5,7,8-tetrahydro-6H-thiazolo[5,4-d]azepine], the IC50 (alpha-2 receptors) was 2300 nM, the Ki (dopamine D2-receptors) was 8 nM and the “α2-IC50 / D2-Ki” value (dopamine D2-receptors) was 287.
`Nc1nc2c(s1)CCN(CC=Cc1ccccc1[N+](=O)[O-])CC2` [Example 4g, 2-Amino-6-(3-(2-nitro-phenyl)allyl)-4,5,7,8-tetrahydro-6H-thiazolo[5,4-d]azepine] was tested, and the IC50 (alpha-2 receptors) was 240 nM, the Ki (dopamine D2-receptors) was 2 nM and the “α2-IC50 / D2-Ki” value (dopamine D2-receptors) was 120.
With `Nc1nc2c(s1)CCN(CC=Cc1ccc([N+](=O)[O-])cc1)CC2` [Example 4i, 2-Amino-6-(3-(4-nitro-phenyl)allyl)-4,5,7,8-tetrahydro-6H-thiazolo[5,4-d]azepine] the IC50 (alpha-2 receptors) was 2050 nM, the Ki (dopamine D2-receptors) was 13 nM and the “α2-IC50 / D2-Ki” value (dopamine D2-receptors) was 157.
For `CN1CCc2cccc3c2[C@H]1Cc1ccc(O)c(O)c1-3` [apomorphine, reference compound], the “effect on MPTP-induced symptoms” value (MPTP monkeys) was “temporary cessation of this phenomenon”.
For `Nc1nc2c(s1)CCN(CC=Cc1ccccc1Cl)CC2` [Example 4e, 2-Amino-6-(3-(2-chloro-phenyl)allyl)-4,5,7,8-tetrahydro-6H-thiazolo[5,4-d]azepine], the IC50 (alpha-2 receptors) was 190 nM, the Ki (dopamine D2-receptors) was 3 nM and the “α2-IC50 / D2-Ki” value (dopamine D2-receptors) was 63.
`Nc1nc2c(s1)CCN(CC=Cc1ccc(Cl)cc1)CC2` [Example 3a, 2-Amino-6-(3-(4-chloro-phenyl)allyl)-4,5,7,8-tetrahydro-6H-thiazolo[5,4-d]azepine] was tested, and the IC50 (alpha-2 receptors) was 620 nM, the Ki (dopamine D2-receptors) was 7 nM and the “α2-IC50 / D2-Ki” value (dopamine D2-receptors) was 88.
For `Cc1cccnc1C=CCN1CCc2nc(N)sc2CC1` [Example 11i, 2-Amino-6-(3-(3-methyl-2-pyridyl)allyl)-4,5,7,8-tetrahydro-6H-thiazolo[5,4-d]azepine], the IC50 (alpha-2 receptors) was 1500 nM, the Duration of activity (MPTP monkeys; 0.05 mg/kg i.m. (MED)) was ~ 1.5 hours and the Side effects (MPTP monkeys; 0.05 mg/kg i.m. (MED)) was “none”. For the same compound, the Duration of activity (MPTP monkeys; 0.20 mg/kg i.m.) was 2.0 to 5 h, the Side effects (MPTP monkeys; 0.20 mg/kg i.m.) was “none” and the minimal effective dose (MPTP monkeys) was 0.05 mg/kg. The Ki (dopamine D2-receptors) was 2.6 nM and the “α2-IC50 / D2-Ki” value (dopamine D2-receptors) was 576.
In the case of `CC(C)COc1ccc(C=CCN2CCc3nc(N)sc3CC2)cc1` [Example 8n, 2-Amino-6-(3-(4-isobutoxy-phenyl)allyl)-4,5,7,8-tetrahydro-6H-thiazolo[5,4-d]azepine], the IC50 (alpha-2 receptors) is reported as 2000 nM, the Ki (dopamine D2-receptors) is reported as 15 nM and the “α2-IC50 / D2-Ki” value (dopamine D2-receptors) is reported as 133.
`Cc1nc(C=CCN2CCc3nc(N)sc3CC2)cs1` [Example 9, 2-Amino-6-(3-(2-methyl-4-thiazolyl)allyl)-4,5,7,8,-tetrahydro-6H-thiazolo[5,4-d]azepine-semihydrate] was tested, and the IC50 (alpha-2 receptors) was 530 nM, the Ki (dopamine D2-receptors) was 6.7 nM and the “α2-IC50 / D2-Ki” value (dopamine D2-receptors) was 79.
`Nc1nc2c(s1)CCN(CC#Cc1ccccn1)CC2` [Example 10, 2-Amino-6-(3-(2-pyridyl)-2-propyn-1-yl)-4,5,7,8-tetrahydro-6H-thiazolo[5,4-d]azepine] was tested, and the IC50 (alpha-2 receptors) was 15000 nM, the Ki (dopamine D2-receptors) was 17 nM and the “α2-IC50 / D2-Ki” value (dopamine D2-receptors) was 882.
With `Nc1nc2c(s1)CCN(CC=Cc1cccc(Cl)n1)CC2` [Example 11, 2-Amino-6-(3-(6-chloro-2-pyridyl)allyl)-4,5,7,8-tetrahydro-6H-thiazolo[5,4-d]azepine] the IC50 (alpha-2 receptors) was 820 nM, the Ki (dopamine D2-receptors) was 3.2 nM and the “α2-IC50 / D2-Ki” value (dopamine D2-receptors) was 256.
For `Nc1nc2c(s1)CCN(CC(=Cc1ccccc1)c1ccccc1)CC2` [Example 8o], the IC50 (alpha-2 receptors) was 3300 nM, the Ki (dopamine D2-receptors) was 14 nM and the “α2-IC50 / D2-Ki” value (dopamine D2-receptors) was 235.
For `Nc1nc2c(s1)CCN(CC=Cc1ccc(OCc3ccccc3)cc1)CC2` [Example 4z, 2-Amino-6-(3-(4-benzyloxy-phenyl)allyl)-4,5,7,8-tetrahydro-6H-thiazolo[5,4-d]azepine], the IC50 (alpha-2 receptors) was 3800 nM, the Ki (dopamine D2-receptors) was 8.4 nM and the “α2-IC50 / D2-Ki” value (dopamine D2-receptors) was 452.
For `Cl.Cl.Nc1nc2c(s1)CCN(CCCc1ccccc1)CC2` [Example 3b, 2-Amino-6-(3-phenyl-propyl)-4,5,7,8-tetrahydro-6H-thiazolo[5,4-d]azepine-dihydrochloride], the IC50 (alpha-2 receptors) was 810 nM, the Ki (dopamine D2-receptors) was 24 nM and the “α2-IC50 / D2-Ki” value (dopamine D2-receptors) was 145.
With `COc1ccc(OC)c(C=CCN2CCc3nc(N)sc3CC2)c1` [Example 4p, 2-Amino-6-(3-(2,5-dimethoxy-phenyl)allyl)-4,5,7,8-tetrahydro-6H-thiazolo[5,4-d]azepine] the IC50 (alpha-2 receptors) was 89 nM, the Duration of activity (MPTP monkeys; 0.05 mg/kg i.m. (MED)) was ~ 2 hours and the Side effects (MPTP monkeys; 0.05 mg/kg i.m. (MED)) was “none”. For the same compound, the Duration of activity (MPTP monkeys; 0.30 mg/kg i.m.) was 2.0 to 5 h, the Side effects (MPTP monkeys; 0.30 mg/kg i.m.) was “none” and the minimal effective dose (MPTP monkeys) was 0.05 mg/kg. For the same compound, the Ki (dopamine D2-receptors) was 0.89 nM and the “α2-IC50 / D2-Ki” value (dopamine D2-receptors) was 100.
`N[C@@H](Cc1ccc(O)c(O)c1)C(=O)O` [levodopa, reference compound] was tested, and the “effect on MPTP-induced symptoms” value (MPTP monkeys) was “temporary cessation of this phenomenon”.
`Nc1nc2c(s1)CCN(CC=Cc1ccccc1O)CC2` [Example 15, 2-Amino-6-(3-(2-hydroxy-phenyl)allyl)-4,5,7,8-tetrahydro-6H-thiazolo[5,4-d]azepine] was tested, and the IC50 (alpha-2 receptors) was 590 nM, the Ki (dopamine D2-receptors) was 0.95 nM and the “α2-IC50 / D2-Ki” value (dopamine D2-receptors) was 621.
With `Nc1nc2c(s1)CCN(CC=Cc1ccccc1N)CC2` [Example 16, 2-Amino-6-(3-(2-amino-phenyl)allyl)-4,5,7,8-tetrahydro-6H-thiazolo[5,4-d]azepine] the IC50 (alpha-2 receptors) was 400 nM, the Ki (dopamine D2-receptors) was 1.4 nM and the “α2-IC50 / D2-Ki” value (dopamine D2-receptors) was 285.
